Data on 14 compounds can be found in paper PMC9503112, “Synthesis, Molecular Docking, In Vitro and In Vivo Studies of Novel Dimorpholinoquinazoline-Based Potential Inhibitors of PI3K/Akt/mTOR Pathway” (International Journal of Molecular Sciences, 2022).

What is called melting point is the temperature, or range, at which the solid turns liquid.

One data set has as its system MCF7. As to the kind of experiment: Antiproliferative activity, MTT assay. In kind it is cell-based. Particulars: Homo sapiens, 72 h, standard deviations within 50%. How it is done: (§1) Human breast cancer MCF7, MDA-MB-231, SkBr-3 (purchased from the ATCC collection), human keratinocytes HaCaT, murine fibroblasts L929 and macrophages J774 cells (Collection of Shemyakin-Ovchinnikov Institute of Bioorganic Chemistry RAS) were cultured in standard DMEM or RPMI-1640 medium (ThermoScientific, Waltham, MA, USA) supplemented with 10% fetal bovine serum (FBS, Cytiva, Marlborough, MA, USA) at 37 °C, 5 % CO2 and 80–85% humidity (NuAir CO2 incubator). The cell growth was evaluated by MTT (3-[4,5-dimethylthiazol-2-yl]-2,5-diphenyltetrazolium bromide) test. Cells were seeded at a density of 5 × 10^3 cells per well in 96-well flat-bottomed plates (TPP). The compounds were dissolved in DMSO (AppliChem) to 10 mM before the experiments, and then the resulting solutions were diluted by the medium to the required concentrations. Solutions of the tested compounds with different concentrations in 100 μL of the medium were added and the cells were grown for 72 h. MTT (10 μL/well, 5 mg/mL) was added for the final 3 h. The formazan purple crystals were dissolved in DMSO (100 μL per well). The absorbance of solutions was measured at 540 nm with a MultiScan reader (ThermoFisher). Results were analyzed by Excel package (Microsoft). The inhibition of proliferation (inhibitory index) was calculated as [1–(ODexperiment/ODcontrol)], where OD was MTT optical density. IC50 (Table 1) was determined as the concentration giving 50% of inhibition in the comparison with it […].
(In general: Formazan colour is commonly taken as a measure of viable cells.)

The next data set concerns MDA-MB-231. As to the kind of experiment: Antiproliferative activity, MTT assay. In kind it is cell-based, human. Particulars: Homo sapiens, MDA-MB-231; MTT, 72 h; standard deviations within 50%. On the procedure: as §1
In the next data set the test system is keratinocytes HaCaT. As to the kind of experiment: Antiproliferative activity, MTT assay. In kind it is cell-based. To be noted: Homo sapiens, 72 h, standard deviations within 50%. On the procedure: as §1
The next data set has as its system fibroblasts L929. As to the kind of experiment: Antiproliferative activity, MTT assay. In kind it is cell-based, murine. Particulars: Mus musculus, 72 h, standard deviations within 50%. How it is done: as §1
A further data set has as its system macrophages J774. The data set is described as follows: Antiproliferative activity, MTT assay. Type of data set: cell-based, murine. To be noted: Mus musculus, 72 h, standard deviations within 50%. How it is done: as §1
Data set [1] concerns the target T1, recombinant PI3K (p110α/p85α) (Homo sapiens, UniProt P42336).
T1 construct: purchased Millipore 14-602
As to the kind of experiment: PI3K inhibition assay (HTRF). Particulars: FRET/HTRF detection; approximate; read-out: IC50 PI3Kα. Type of data set: biochemical. On the procedure: The PI 3-Kinase (Class I) HTRF Assay Kit (Cat# 33-016 from Millipore) was used to determine the activity of recombinant PI3K (p110α/p85α) human (Cat# 14-602 from Millipore). The kit was supplemented with ATP (Cat# A26209 from Sigma-Aldrich, St. Louis, MI, USA), DL-dithiothreitol (Cat# S-[…]-1 from Sigma-Aldrich), and Wortmannin inhibitor (Cat# 12-338 from Millipore, Burlington, MA, USA). The latter was used at 0.1 μM concentration. For measurements, a Victor ×5 plate reader (PerkinElmer, 2030, Waltham, MA, USA) was used in TRF mode with excitation at 340 nm. Fluorescence emission was recorded at 613 and 670 nm in a 384-well plate (Cat# S-CLS3658 from Sigma-Aldrich) at a time interval of 150-350 μs. The enzymatic reaction and the determination of its products were carried out according to the recommendations of the reagent kit manufacturer (Millipore) in two wells for each sample. In calculations, readings in parallel wells were averaged. The calculations were made according to the recommendations of the equipment manufacturer.

A further data set deals with SkBr-3 cells. As to the kind of experiment: Cell cycle analysis (PI-stained DNA, flow cytometry). Type of data set: cell-based, human. On the procedure: The cell cycle was analyzed using PI-stained DNA. Cells from the compounds 7 treated cultures were collected at 24, 48, and 72 h, trypsinized, washed in ice-cold PBS, fixed by the addition of 70% ethanol and left for 2 h at −20 °C. Thereafter, the cells were washed twice in PBS, stained with 50 μg/mL of propidium iodide (Sigma, Merck KGaA, Darmstadt, Germany) in PBS, treated with 10 µg/mL of RNAse and analyzed by flow cytometry using FACScan device (BD, USA). A total of 2000 events were collected. The results were analyzed using FlowJo 10 software (BD, Franklin Lakes, NJ, USA).
A general note: Flow cytometry measures light scatter and fluorescence of single cells or particles in a stream.

The test system of a further data set is MCF7 breast cancer cells. On the set-up: method as in PMID 32825760. To be noted: read-out: Concentration causing 50% suppression of MCF7 cell growth; cited from earlier work.
Data set [2] has as its system PI3K/Akt/mTOR signaling pathway in MCF7 cells. The data set is described as follows: Immunoblotting of PI3K/Akt/mTOR phosphorylation. To be noted: 500 nM. In kind it is cell-based, human. How it is done: MCF7 cells were seeded onto 100 mm dishes (Corning) and cultivated for 24 h. Compound 7c was added at different concentrations while the reference compound wortmannin (Selleckchem, Houston, TX, USA) was used at 500 nM. The cells were harvested after 72 h of growth with the compounds. To prepare cell extracts, MCF7 cells were twice washed in phosphate buffer and incubated for 10 min on ice in the modified lysis buffer containing 50 mM Tris-HCl, pH 7.5, 0.5% Igepal CA-630, 150 mM NaCl, 1 mM EDTA, 1 mM DTT, 1 mM PMSF, 0.1 mM sodium orthovanadate and aprotinin, leupeptin, pepstatin (1 µg/mL each). The protein content was determined by the Bradford method. Cell lysates were separated in 10% SDS-PAGE under reducing conditions, transferred to a nitrocellulose membrane (GE HealthCare, Chicago, IL, USA), and processed according to a standard protocol. To prevent nonspecific absorption, the membranes were treated with 5% nonfat milk solution in TBS buffer (20 mM Tris, 500 mM NaCl, pH 7.5) with 0.1% Tween-20 and then incubated with primary antibodies (Cell Signaling Technology, Danvers, MA, USA) overnight at 4 °C. […] Signals were detected using the ECL reagent using the ImageQuant LAS4000 system (GE HealthCare, Chicago, IL, USA).
The signals of phospho-proteins to total ones were calculated using the ImageJ program from inverted images of the bands.
On the technique in general: Immunoblotting shows a protein as a band on a membrane.

T1 sequence (P42336 whole entry): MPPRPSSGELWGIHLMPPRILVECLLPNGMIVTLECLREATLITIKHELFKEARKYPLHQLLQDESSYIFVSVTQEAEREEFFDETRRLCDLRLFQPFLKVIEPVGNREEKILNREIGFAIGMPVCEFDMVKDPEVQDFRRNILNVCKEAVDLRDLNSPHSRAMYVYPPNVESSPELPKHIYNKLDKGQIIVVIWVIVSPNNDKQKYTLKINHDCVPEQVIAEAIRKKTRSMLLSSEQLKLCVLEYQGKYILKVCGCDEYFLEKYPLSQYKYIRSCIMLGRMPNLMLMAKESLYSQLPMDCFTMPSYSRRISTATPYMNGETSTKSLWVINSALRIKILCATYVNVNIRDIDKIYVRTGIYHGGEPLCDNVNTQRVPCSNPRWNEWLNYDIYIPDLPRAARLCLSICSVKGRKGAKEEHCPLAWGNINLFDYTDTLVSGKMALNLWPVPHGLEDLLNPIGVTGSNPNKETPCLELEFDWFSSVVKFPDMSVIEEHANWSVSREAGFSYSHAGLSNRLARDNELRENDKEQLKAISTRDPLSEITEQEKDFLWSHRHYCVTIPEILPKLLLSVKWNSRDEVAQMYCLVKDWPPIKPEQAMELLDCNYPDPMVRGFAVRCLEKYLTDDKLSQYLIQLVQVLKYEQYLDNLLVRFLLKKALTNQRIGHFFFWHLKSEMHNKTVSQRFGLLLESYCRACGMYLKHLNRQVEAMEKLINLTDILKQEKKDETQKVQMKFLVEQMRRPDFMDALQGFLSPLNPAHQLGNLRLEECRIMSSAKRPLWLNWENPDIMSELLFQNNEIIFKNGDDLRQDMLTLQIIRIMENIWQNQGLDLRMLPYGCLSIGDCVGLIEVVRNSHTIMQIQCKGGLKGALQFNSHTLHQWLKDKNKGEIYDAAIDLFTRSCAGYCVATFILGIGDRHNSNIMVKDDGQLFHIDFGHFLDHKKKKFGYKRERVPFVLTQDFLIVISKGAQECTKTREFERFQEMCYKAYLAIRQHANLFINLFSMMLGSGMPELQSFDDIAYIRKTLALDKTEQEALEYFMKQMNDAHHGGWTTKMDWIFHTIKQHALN
T1 sequence (P27986 whole entry partner): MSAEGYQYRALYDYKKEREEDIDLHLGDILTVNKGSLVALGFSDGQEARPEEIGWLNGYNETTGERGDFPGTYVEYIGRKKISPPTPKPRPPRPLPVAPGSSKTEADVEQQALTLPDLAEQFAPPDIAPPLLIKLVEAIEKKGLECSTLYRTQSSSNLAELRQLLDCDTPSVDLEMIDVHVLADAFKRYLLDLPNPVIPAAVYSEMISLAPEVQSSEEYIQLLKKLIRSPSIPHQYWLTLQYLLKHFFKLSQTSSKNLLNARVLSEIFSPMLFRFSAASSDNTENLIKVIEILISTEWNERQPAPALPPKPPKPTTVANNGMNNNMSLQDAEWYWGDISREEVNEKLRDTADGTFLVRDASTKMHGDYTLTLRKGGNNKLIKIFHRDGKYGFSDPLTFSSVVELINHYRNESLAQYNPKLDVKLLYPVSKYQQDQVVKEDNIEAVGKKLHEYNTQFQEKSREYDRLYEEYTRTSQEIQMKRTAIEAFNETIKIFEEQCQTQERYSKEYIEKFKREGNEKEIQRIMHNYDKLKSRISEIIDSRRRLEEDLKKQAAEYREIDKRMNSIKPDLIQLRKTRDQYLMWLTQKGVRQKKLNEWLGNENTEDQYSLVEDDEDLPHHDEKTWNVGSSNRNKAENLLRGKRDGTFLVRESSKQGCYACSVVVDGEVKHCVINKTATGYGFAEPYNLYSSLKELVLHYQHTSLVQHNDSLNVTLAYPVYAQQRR

Compound `Nc1ccc(-c2ccc3c(N4CCOCC4)nc(N4CCOCC4)nc3c2)cc1` [Compound 6, 4-(2,4-Dimorpholinoquinazolin-7-yl)aniline] gave a melting point of 191 to 193 °C.

As to `O=C(NCc1ccco1)Nc1ccc(-c2ccc3c(N4CCOCC4)nc(N4CCOCC4)nc3c2)cc1` [Compound 7a, 1-(4-(2,4-Dimorpholinoquinazolin-7-yl)phenyl)-3-(furan-2-ylmethyl)urea], the melting point lay within 184 to 186 °C. In the data set on MCF7, this compound had an IC50 of 6.6 µM. The compound also yielded an IC50 in the data set on MDA-MB-231 of 6.7 µM.

As to `COc1ccc(CNC(=O)Nc2ccc(-c3ccc4c(N5CCOCC5)nc(N5CCOCC5)nc4c3)cc2)cc1` [Compound 7b, 1-(4-(2,4-Dimorpholinoquinazolin-7-yl)phenyl)-3-(4-methoxybenzyl)urea], the IC50 in the data set with MCF7 is 1.1 µM; in the data set with keratinocytes HaCaT it was 0.8 µM; with MDA-MB-231 it was 1.7 µM; in the data set with fibroblasts L929, 12 µM; with macrophages J774, 1.6 µM; in [1], roughly 50 µM. Further, in the data set on SkBr-3 cells, the “Concentration above which all cells died” value was “higher than 10 μM”. Moreover, the “Concentration below which no changes in the cell cycle were found” value in the data set with SkBr-3 cells is “below 1 μM”.

For the compound `O=C(Nc1ccc(-c2ccc3c(N4CCOCC4)nc(N4CCOCC4)nc3c2)cc1)NC1CC1` [Compound 7d, 1-Cyclopropyl-3-(4-(2,4-dimorpholinoquinazolin-7-yl)phenyl)urea], the melting point was in the range of 83 to 85 °C. The compound further registered an IC50 in the data set on MCF7 of 5.2 µM. Besides, in the data set on MDA-MB-231, the IC50 is 10.5 µM.

For the compound `N[C@@H](CCCCNC(=O)Nc1ccc(-c2ccc3c(N4CCOCC4)nc(N4CCOCC4)nc3c2)cc1)C(=O)O` [Compound 7e, N6-((4-(2,4-Dimorpholinoquinazolin-7-yl)phenyl)carbamoyl)lysine], the melting point is 89 to 91 °C. Further, the IC50 with MCF7 stood at 9.5 µM. In the data set with keratinocytes HaCaT, this compound yielded an IC50 of 12 µM. The compound also showed an IC50 with MDA-MB-231 of 24 µM. Moreover, the IC50 with fibroblasts L929 worked out at 12 µM. The compound further showed an IC50 in the data set with macrophages J774 of 12 µM.

As to `O=C(Nc1ccc(-c2ccc3c(N4CCOCC4)nc(N4CCOCC4)nc3c2)cc1)Nc1ccc([N+](=O)[O-])cc1` [Compound 7f, 1-(4-(2,4-Dimorpholinoquinazolin-7-yl)phenyl)-3-(4-nitrophenyl)urea], the melting point lay within 240 to 242 °C. In the data set on MCF7, this compound displayed an IC50 of 6.5 µM. In the data set on keratinocytes HaCaT, this compound had an IC50 of 3 µM. In addition, the IC50 in the data set on MDA-MB-231 was 8.8 µM. Further, the IC50 in the data set with fibroblasts L929 came to 12 µM. The IC50 with macrophages J774 turned out to be 6 µM.

With `O=C(Nc1ccc(F)cc1)Nc1ccc(-c2ccc3c(N4CCOCC4)nc(N4CCOCC4)nc3c2)cc1` [Compound 7g, 1-(4-(2,4-Dimorpholinoquinazolin-7-yl)phenyl)-3-(4-fluorophenyl)urea], the IC50 in the data set with MCF7 came out at 4.9 µM; in the data set with keratinocytes HaCaT, 25 µM; in the data set on MDA-MB-231 it was 14 µM; in the data set on fibroblasts L929 it was 25 µM; in the data set on macrophages J774 it was 6 µM.

Turning to `O=C(Nc1ccc(-c2ccc3c(N4CCOCC4)nc(N4CCOCC4)nc3c2)cc1)Nc1ccccn1` [Compound 7h, 1-(4-(2,4-Dimorpholinoquinazolin-7-yl)phenyl)-3-(pyridin-2-yl)urea], the melting point is 210 to 212 °C. In the data set with MCF7, the IC50 came to 13 µM. In the data set with keratinocytes HaCaT, this compound returned an IC50 of 3 µM. In the data set on MDA-MB-231, this compound returned an IC50 of 14 µM. The same compound had an IC50 in the data set with fibroblasts L929 of 12 µM. Also, the IC50 with macrophages J774 amounted to 6 µM.

Compound `O=C(Nc1ccc(-c2ccc3c(N4CCOCC4)nc(N4CCOCC4)nc3c2)cc1)Nc1cccc2ccccc12` [Compound 7i, 1-(4-(2,4-Dimorpholinoquinazolin-7-yl)phenyl)-3-(naphthalen-1-yl)urea] yielded a melting point of 228 to 230 °C. For the same compound, the IC50 in the data set on MCF7 stood at 6.1 µM. The IC50 in the data set with keratinocytes HaCaT worked out at 6 µM. Moreover, in the data set on MDA-MB-231, the IC50 turned out to be 11 µM. For the same compound, the IC50 in the data set with fibroblasts L929 worked out at 6 µM. The same compound displayed an IC50 in the data set with macrophages J774 of 6 µM.

In the case of `COC(=O)c1ccc(NC(=O)Nc2ccc(-c3ccc4c(N5CCOCC5)nc(N5CCOCC5)nc4c3)cc2)cc1` [Compound 7j, Methyl 4-(3-(4-(2,4-Dimorpholinoquinazolin-7-yl)phenyl)ureido)benzoate], the IC50 worked out at 3.8 µM in the data set on MCF7; 3 µM in the data set on keratinocytes HaCaT; 4.1 µM in the data set with MDA-MB-231; 3 µM with fibroblasts L929; 0.8 µM with macrophages J774. In addition, in the data set with SkBr-3 cells, the “Concentration above which all cells died” value is recorded as “higher than 10 μM”. In addition, the “Concentration below which no changes in the cell cycle were found” value in the data set with SkBr-3 cells is listed as “below 1 μM”.

`CCOC(=O)N1CCN(C(=O)Nc2ccc(-c3ccc4c(N5CCOCC5)nc(N5CCOCC5)nc4c3)cc2)CC1` [Compound 7k, Ethyl 4-((4-(2,4-Dimorpholinoquinazolin-7-yl)phenyl)carbamoyl)piperazine-1-carboxylate] yielded a melting point of 109 to 111 °C. The compound further had an IC50 with MCF7 of 11 µM. This compound registered an IC50 with keratinocytes HaCaT of 6 µM. In the data set on MDA-MB-231, this compound showed an IC50 of 17 µM. In addition, the IC50 in the data set on fibroblasts L929 stood at 25 µM. The compound further gave an IC50 in the data set with macrophages J774 of 3 µM.

For `C#CCNC(=O)Nc1ccc(-c2ccc3c(N4CCOCC4)nc(N4CCOCC4)nc3c2)cc1` [Compound 7l, 1-(4-(2,4-Dimorpholinoquinazolin-7-yl)phenyl)-3-(prop-2-yn-1-yl)urea], the melting point was 168 to 170 °C. For the same compound, the IC50 with MCF7 was greater than 50 µM. Besides, the IC50 with keratinocytes HaCaT amounted to 3 µM. In the data set on MDA-MB-231, this compound yielded an IC50 greater than 50 µM. Further, the IC50 in the data set on fibroblasts L929 was greater than 50 µM. The compound further displayed an IC50 in the data set on macrophages J774 of 6 µM.

Regarding `CN(C)C(=N)N=C(N)N` [MF, metformin], in the data set with MCF7 breast cancer cells, the IC50 was 5800 µM.

Turning to `COC[C@H]1OC(=O)c2coc3c2[C@@]1(C)C1=C(C3=O)[C@@H]2CCC(=O)[C@@]2(C)C[C@H]1OC(C)=O` [wortmannin, reference compound], the “Effect on PI3K/Akt/mTOR signaling pathway” value in data set [2] is reported as “neither affects PI3K/Akt/mTOR signaling pathway even at 500 nM”.
